According to PubChem BioAssay (NCI):
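Protocol summary: plate cells (96-well), add compound at 5 concentrations, incubate 48 h, interpolate endpoints linearly. GI50 marks 50% less growth. At the TGI there is no net growth.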

How the values were obtained:
Experiment in all cases: growth of human tumour cells (NCI), 48 h
[1] = system: 786-0 renal
[2] = system: ACHN renal
[3] = system: EKVX NSCLC
[4] = system: HOP-62 NSCLC
[5] = system: LOX IMVI melanoma
[6] = system: NCI-H23 lung
[7] = system: SF-295 CNS
[8] = system: SF-539 CNS
[9] = system: SN12C renal
[10] = system: SW-620 colon

SMILES	GI50 [1]	TGI [1]	GI50 [2]	TGI [2]	GI50 [3]	TGI [3]	GI50 [4]	TGI [4]	GI50 [5]	TGI [5]	GI50 [6]	TGI [6]	GI50 [7]	TGI [7]	GI50 [8]	TGI [8]	GI50 [9]	TGI [9]	GI50 [10]	TGI [10]
C=C(C)C(=O)O[C@H]1CC(=C)[C@@H]2C[C@H](O)[C@](O)(CCl)[C@@H]2[C@H]2OC(=O)C(=C)[C@@H]21	1.93 µM	3.88 µM	1.82 µM	3.31 µM	12.3 µM	25.7 µM	10.5 µM	23.3 µM	1.8 µM	3.39 µM	11.6 µM	25.7 µM	12.3 µM	26.4 µM	1.98 µM	4.35 µM	4.09 µM	17.1 µM	2.08 µM	4.57 µM
c1ccc2c(c1)cc(C1NCCc3[nH]cnc31)c1ccccc12 (stereo not given)	–	> 60.8 µM	–	> 61.9 µM	–	> 100 µM	–	> 88.6 µM	–	40.7 µM	–	> 100 µM	–	> 100 µM	–	> 59.9 µM	–	> 100 µM	–	> 60.5 µM
CC(C)N(Cc1ccccc1)c1c(S)ssc1=S	3.65 µM	> 100 µM	1.97 µM	12.4 µM	2.2 µM	8.49 µM	4.24 µM	> 100 µM	3.08 µM	15.5 µM	3.83 µM	96.3 µM	1.19 µM	11.7 µM	3.06 µM	10.4 µM	2.42 µM	19.7 µM	2.69 µM	12.7 µM
O=C(CCCCCCCCC(=O)N/N=C\c1ccccc1O)N/N=C\c1ccccc1O	0.334 µM	1.99 µM	0.235 µM	20.1 µM	1.53 µM	> 69.6 µM	0.418 µM	4.72 µM	0.273 µM	6.07 µM	0.75 µM	21.9 µM	1.07 µM	31.7 µM	0.452 µM	17.4 µM	0.7 µM	> 42.4 µM	1.28 µM	24.1 µM
CCN(CC)CCCCNc1c2ccccc2[n+](C)c2c1[nH]c1ccccc12	1.29 µM	> 26 µM	2.27 µM	> 47.3 µM	0.298 µM	3.16 µM	0.683 µM	6.15 µM	0.346 µM	2.03 µM	0.221 µM	1.07 µM	0.542 µM	4.31 µM	0.473 µM	1.74 µM	0.0699 µM	6.08 µM	0.395 µM	7.47 µM
O=C1c2ccccc2C(O)(O)C1(O)C1(O)C(=O)c2ccccc2C1(O)O (stereo not given)	–	> 100 µM	–	47.9 µM	–	> 100 µM	–	54.1 µM	–	58.3 µM	–	38.2 µM	–	88.5 µM	–	> 100 µM	–	30.6 µM	–	> 100 µM
